# Laboratory results published in patent publication US20210299286A1, “TETRAZINES FOR HIGH CLICK CONJUGATION YIELD IN VIVO AND HIGH CLICK RELEASE YIELD” (Tagworks Pharmaceuticals B.V., priority 2018, published 2021).
# Legend:
# [1] = test system: LS174T human colon carcinoma cells; test: Cell proliferation (MTT) assay of ADCs with range of tetrazines; type: cell-based; conditions: 3-day incubation
# Description: Cell proliferation was assessed after a 3-day incubation by means of an MTT assay and was expressed as the % of that obtained without treatment.
# AVP0458-TCO-MMAE = test: MMAE release from diabody ADC with D8-MMAE internal standard (LC-SIM-MS); type: biochemical; conditions: 10 equiv of tetrazine, PBS/plasma (1/1), 37° C., after 24 h, n=3
# Description: In an alternative method MMAE release from diabody ADC (AVP0458-TCO-MMAE) was determined by using a deuterated internal standard D8-MMAE. ADC (1.1×10^−10 moles bound MMAE) and D8-MMAE (1.1×10^−10 moles) and 10 equiv of tetrazine were incubated in 100 uL PBS/plasma (1/1) at 37° C.
# [2] = Second-order reaction rate constant with TCO derivative by UV spectroscopy; type: physicochemical; conditions: 25% MeCN/PBS at 20° C.
# Description: The second-order reaction rate constants were calculated from the rate at which the absorption at 520 nm (specific for the TZ moiety) decreased (Table 4).
# [3] = In vitro tetrazine stability (decrease of UV absorbance at 520 nm); type: physicochemical; conditions: 10% MeCN/PBS; read-out: In vitro tetrazine stability (h), t1/2 (converted)
# Description: The stability of tetrazines was evaluated by dissolving them in 10% MeCN/PBS at 37° C. and following the decrease of the tetrazine UV absorbance at 520 nm in time (Table 4).
# CC49-TCO-Dox [4] = test: In vitro Dox release from CC49-TCO-Dox in PBS; type: biochemical
# Description: (§1) Doxorubicin (Dox) release from the TCO-linked ADC CC49-TCO-Dox with various TZ activators in PBS and 50% mouse serum at 37° C. was evaluated in vitro as described in Rossin et al. Bioconjug. […] The results of these experiments are depicted in Tables 3 (PBS) and 4 (mouse serum). The release reactions were performed in triplicate unless otherwise stated in the result table.
# CC49-TCO-Dox [5] = test: In vitro Dox release from CC49-TCO-Dox in 50% mouse serum; type: biochemical
# Description: as §1
# [6] = test system: LS174T tumor-bearing mice; test: Tumor blocking experiment, mice pretreated with IgG-based ADC CC49-TCO-Dox; type: in vivo, mouse; conditions: CC49-TCO-Dox 5 mg/kg, clearing agent, TZ activator, probe [177Lu]Lu-5.1; compared with the other TZ's
# Description: (§2) The animal studies were performed in accordance with the principles established by the revised Dutch Act on Animal Experimentation (1997) and were approved by the institutional Animal Welfare Committee of the Maastricht University and Radboud University Nijmegen. The colorectal cancer (LS174T) mouse model was reported in Rossin et al. Bioconjug. Chem., 2016, 27, 1697-1706.
# (§3) To assess the in vivo reaction of TZ activators towards TCO-containing ADCs, tumor blocking experiments were performed as described in Rossin et al., Bioconjug. Chem. 2016, 27, 1697-1706.
# A series of 3,6-bisalkyl TZ activators (2.1, 2.2, 2.9, 2.11, 2.12) and 3-alkyl-6-pyridyl TZ activators (3.1, 3.2, 3.4) was tested in tumor-bearing mice (n=3-4) pretreated with an IgG-based ADC (CC49-TCO-Dox, DAR ca. 2) at a 5 mg/kg dose. A clearing agent (galactose-albumin-TZ, Rossin et al., J. Nucl. Med. 2013, 54, 1989-1995) was administered to the mice 24 post-ADC injection followed by the TZ activator (dose 10×: ca. 0.033 mmol/kg; close 100×: ca. 0.335 mmol/kg) 2 h later. One-hour after activation the mice were administered the highly reactive radiolabeled probe [^177Lu]Lu-5.1 (ca. 0.335 μmol/kg, ca. 1.5 MBq/mouse) and were euthanized 3 h later. All injections were performed intravenously. Tumors were harvested and the radioactivity was measured by γ-counting along with standards to determine the % injected dose per gram (% ID/g). […]
# [7] = test system: LS174T tumor-bearing mice; test: Tumor blocking experiment, mice pretreated with diabody-based ADC AVP0458-TCO-MMAE; type: in vivo, mouse; conditions: AVP0458-TCO-MMAE ca. 2 mg/kg, activator 48 h later, probe [111In]In-5.1; compared with the other TZ's
# Description: as §2, §3
# A series of 3-pyrimidyl-6-alkyl TZ activators (4.1, 4.11, 4.13, 4.15, 4.26, 4.28) was then compared to compound 4.12 in LS174T tumor-bearing mice (n=3-5) pretreated with a diabody-based ADC (AVP0458-TCO-MMAE; DAR=4). The mice were injected the ADC at a ca. 2 mg/kg dose followed 48 h later by the activator (dose 1×: ca. 3.35 μmol/kg; dose 2.5×: ca. […]; dose 5×: ca. 0.017 mmol/kg; dose 10×: ca. 0.033 mmol/kg; dose 100×: ca. 0.335 mmol/kg) and, 1 h post-activator, by the [^111In]In-5.1 probe. Three hours ([…], 4.15) or 24 h (4.26, 4.28) post-probe injection the mice were euthanized and the tumor blocking capacity of the various activators at the administered dose (FIG. 2B) was calculated as reported above.
# [8] = In vitro microsomal stability of TZ activators, human microsomes; type: in vitro ADME; conditions: 5 μM activator, 0.5 mg/mL microsomes, normalized to 100% at t=0, LC-MS
# Description: (§4) The in vitro stability of activators 4.11, 4.13, and 4.15 was tested in the presence of human, mouse, rat and cynomolgus microsomes after 30 min incubation (normalized to 100% at t=0). Control samples were incubated with the same concentration of BSA. The activators (5 μM) were incubated in 20 mM phosphate buffer pH 7.4 containing the microsomes (0.5 mg/mL), 1 mM NADP, 5 mM glucose-6-phosphate, 1 U/mL glucose-6-phosphate dehydrogenase, and 2 mM MgCl2 at 37° C. and the measurements were performed by LC-MS. The amount of activator in solution was quantified using calibration curves.
# [9] = In vitro microsomal stability of TZ activators, cynomolgus microsomes; type: in vitro ADME; conditions: 5 μM activator, 0.5 mg/mL microsomes, normalized to 100% at t=0, LC-MS
# Description: as §4
# [10] = In vitro microsomal stability of TZ activators, mouse microsomes; type: in vitro ADME; conditions: 5 μM activator, 0.5 mg/mL microsomes, normalized to 100% at t=0, LC-MS
# Description: as §4
# [11] = Control incubation with BSA in the microsomal stability test; type: in vitro ADME; conditions: control samples, same concentration of BSA
# Description: as §4
# [12] = In vitro microsomal stability of TZ activators, rat microsomes; type: in vitro ADME; conditions: 5 μM activator, 0.5 mg/mL microsomes, normalized to 100% at t=0, LC-MS
# Description: as §4
# [13] = Remark on stability of the free base; type: physicochemical; conditions: intramolecular nucleophilic attack by the amine
compound,measurement,setting,value
Cc1nnc(-c2nccc(CNC(=O)CN(CCN(CC(=O)O)CC(=O)O)CC(=O)O)n2)nn1 [Compound 4.26],"cell growth inhibition, combination of ADC and activator",[1]; CC49-TCO-Dox 0.1 μM or AVP0458-TCO-MMAE 1 nM plus activator 1 μM,growth inhibition approached that achieved with the corresponding amount of free drug
same,"cell growth inhibition, activators alone",[1]; activator 1 μM alone,minimal cell growth inhibition
same,induced MMAE release (%) from AVP0458-TCO-MMAE,AVP0458-TCO-MMAE,59 ± 0.6%
same,reactivity (k2),[2],135 M⁻¹ s⁻¹
same,half-life,[3],13 h
"Cc1nnc(C)nn1 [Compound 2.1, 3,6-dimethyl-1,2,4,5-tetrazine]",induced MMAE release (%) from AVP0458-TCO-MMAE,AVP0458-TCO-MMAE,95 ± 0.4%
same,reactivity (k2),[2],14 M⁻¹ s⁻¹
same,In vitro Dox release (%) from CC49-Dox at 37° C. in PBS: 1 h,CC49-TCO-Dox [4]; 1 h,76.1%
same,In vitro Dox release (%) from CC49-Dox at 37° C. in PBS: 2 h,CC49-TCO-Dox [4]; 2 h,78.5%
same,In vitro Dox release (%) from CC49-Dox at 37° C. in PBS: 3 h,CC49-TCO-Dox [4]; 3 h,78.8%
same,In vitro Dox release (%) from CC49-Dox at 37° C. in PBS: 24 h,CC49-TCO-Dox [4]; 24 h,80.6%
same,In vitro Dox release (%) from CC49-Dox at 37° C. in PBS: 48 h,CC49-TCO-Dox [4]; 48 h,81.5%
same,half-life,[3],14 h
same,In vitro Dox release (%) from CC49-Dox at 37° C. in 50% mouse serum: 1 h,CC49-TCO-Dox [5]; 1 h,64.6 ± 1.0%
same,In vitro Dox release (%) from CC49-Dox at 37° C. in 50% mouse serum: 2 h,CC49-TCO-Dox [5]; 2 h,68.7 ± 1.1%
same,In vitro Dox release (%) from CC49-Dox at 37° C. in 50% mouse serum: 3 h,CC49-TCO-Dox [5]; 3 h,69.7 ± 1.0%
same,tumor blocking capacity (FIG. 2A),[6],perform much worse
"Cc1nnc(-c2ncccn2)nn1 [Compound 4.1, 3-methyl-6-(pyrimidin-2-yl)-1,2,4,5-tetrazine, reference compound]",induced MMAE release (%) from AVP0458-TCO-MMAE,AVP0458-TCO-MMAE,69 ± 0.0%
same,reactivity (k2),[2],250 M⁻¹ s⁻¹
same,half-life,[3],10 h
same,tumor blocking capacity (FIG. 2B),[7],perform much worse
CN(CCc1nnc(-c2ncccn2)nn1)C(=O)CCCC(=O)NC(CO)(CO)CO [Compound 4.15],In vitro microsomal stability of TZ activators after 30 min incubation at 37° C.: Human,[8],87.7%
same,induced MMAE release (%) from AVP0458-TCO-MMAE,AVP0458-TCO-MMAE,55 ± 0.4%
same,In vitro microsomal stability of TZ activators after 30 min incubation at 37° C.: Cynomolgus,[9],85.6 ± 0.5%
same,In vitro microsomal stability of TZ activators after 30 min incubation at 37° C.: Mouse,[10],81.2%
same,In vitro microsomal stability of TZ activators after 30 min incubation at 37° C.: BSA,[11],87.5%
same,In vitro microsomal stability of TZ activators after 30 min incubation at 37° C.: Rat,[12],91.1%
NCCCc1nnc(-c2ncccn2)nn1 [Compound 4.6],stability in free base form,[13],highly unstable
